# Test results from PMC6832503, “Synthesis of Novel Nicotinic Ligands with Multimodal Action: Targeting Acetylcholine α4β2, Dopamine and Serotonin Transporters” (Molecules, 2019).
# Counter-ions that a name gives are not always drawn.
# Columns and labels:
# h-DAT = target: T1, h-DAT (Homo sapiens, UniProt Q01959); assay: [3H]-WIN 35,428 competitive binding on h-DAT membranes (CHO-K1)
# T1 construct: purchased Perkin-Elmer RBHDATM400UA; host or cells: CHO-K1 membranes
# Protocol: (§1) To evaluate the affinity (Ki) of our compounds, competitive binding assays in α4β2 nAChR using [^3H]-cytisine as radioligand ([^3H]-Cyt) was measured. Binding experiments were carried out on whole rat brain synaptosomes. To evaluate the affinity on the monoamine transporters SERT and DAT, binding affinity (Ki) was determined using [^3H]-WIN 35,428 ([^3H]-WIN) for h-DAT and [^3H]-paroxetine ([^3H]-parox) for h-SERT as specific radioligands for the corresponding monoamine transporters respectively. Competitive binding studies were carried out on homogenized membranes prepared from the human clonal cell line HEK293 for h-SERT (Perkin Elmer) and CHO-K1 for h-DAT (Perkin Elmer). […].
# The cellular background CHO-K1 with 400 μL of h-DAT (Code RBHDATM400UA, Perkin-Elmer, Santiago, Chile) was diluted in 12 Eppendorf tubes, with a storage buffer solution of Tris-HCl 50 mM (pH 7.4), EDTA 0.5 mM, MgCl2 10 mM and 10% sucrose, obtaining a final volume of 260–340 μL stored at −80 °C [46]. Each Eppendorf tube was incubated in 50 mM Tris-HCl buffer solution (pH 7.4), 100 mM NaCl, the drugs under study were using increasing concentrations, with 1 nM of [^3H]-WIN 35,428 (specific activity 82.6 Ci/mmol, Code NET1033025UC, Perkin-Elmer, Santiago, Chile) with a final volume of 250 μL. Non-specific binding was determined using 10 mM methylphenidate.
# After 120 min at 4 °C, the incubation was stopped by rapid filtration on a Whatman GF/C filter preabsorbed in 0.5% polyethylenimine (PEI), washed with cold working buffer solution, 3 x 3mL, filtered, and scintillation liquid was added. The radioactivity was measured by liquid scintillation spectrometry (MicroBeta 2450 microplate counter, PerkinElmer, Santiago, Chile). The data were plotted by non-linear regression variable inhibitor-response dose (Prism 5.01, GraphPad, San Diego, CA, USA) to estimate the IC50 and Ki values for the tested compounds using the Cheng-Prusoff equation.
# h-SERT = target: T2, h-SERT (Homo sapiens, UniProt P31645); assay: [3H]-paroxetine radioligand binding on h-SERT membranes (HEK293); settings: for % radioligand binding at 25 µM / % of Binding [3H]-Paroxetine h-SERT: 25 μM compound, 2 nM [3H]-paroxetine, HEK293 h-SERT membranes; for affinity for h-SERT (displacement of [3H]-paroxetine from the central binding site): result in words
# T2 construct: purchased Perkin-Elmer RBHSTM400UA; host or cells: HEK293 membranes
# Protocol: as §1
# The cellular background HEK293 containing 400 μL of h-SERT (Code RBHSTM400UA, Perkin-Elmer, Santiago, Chile) was diluted in 12 Eppendorf tubes, containing a storage buffer solution of Tris-HCl 50 mM (pH 7.4), EDTA 0.5 mM, MgCl2 10 mM and 10% sucrose, obtaining a final volume between 260 and 340 μL, which was finally stored at −80 °C [46].
# Each Eppendorf tube was incubated with 50 mM Tris HCl buffer (pH 7.4), 120 mM NaCl, 5 mM KCl and the drugs under study using increasing concentrations, in presence of 2 nM of [^3H]-paroxetine (specific activity 23.1 Ci/mmol, Code NET86925UC, Perkin-Elmer, Santiago, Chile) with a final volume of 250 μL [46]. Non-specific binding was determined using […] fluoxetine. After 30 min at 27 °C, the incubation was stopped by rapid filtration on a Whatman GF/C filter preabsorbed in 0.5% polyethylenimine (PEI), washed with cold working buffer solution, 3 × 3mL, filtered, and scintillation liquid was added. The radioactivity was measured by liquid scintillation spectrometry (MicroBeta 2450 microplate counter, PerkinElmer, Santiago, Chile). The data were represented in a bar graph using 25 μM concentration for both, the compound under study and fluoxetine as the non-specific ligand. Each bar represents the mean ± S.E.M obtained in the experiments carried out in triplicates.
# α4β2 nAChR = target: T3, α4β2 nAChR (Rattus norvegicus, UniProt P09483+P12390); assay: [3H]-cytisine competitive binding on whole rat brain synaptosomes
# T3 construct: the rat complete brain P1 fraction (occupying 2 mg of wet tissue for each assay); from tissue; host or cells: whole rat brain, synaptosome pellet (fraction P1)
# Protocol: as §1
# Preparation of the synaptosome fraction: the rats were sacrificed by decapitation, and their brain removed without dissecting. Brain tissue was homogenized in 40 volumes using a buffer of 0.32 M sucrose at pH 7.4, containing 1 mM EDTA, 0.1 mM PMSF, and 0.01% of cold and freshly prepared NaN3, through a glass homogenizer and teflon stem. The homogenate was distributed in Eppendorf tubes and centrifuged at 20,000 g for 30 min at 4 °C to produce a synaptosome pellet (fraction P1) which is used for the binding assay. This fraction P1 was subsequently stored at −80 °C.
# Binding assay of [^3H]-cytisine in α4β2 nAChR cells: the rat complete brain P1 fraction (occupying 2 mg of wet tissue for each assay) was incubated in 2500 μL of 20 mM HEPES buffer solution at pH 7.4 containing 118 mm NaCl, 4.8 mm KCl, 2.5 mm CaCl2, 200 mm Tris, 0.1 mm PMSF and 0.01% NaN3 with or without the different drugs under study at different concentrations, in the presence of 1 nM of [^3H]-cytisine (specific activity 35.8 Ci/mmol, Code NET1054025UC, Perkin-Elmer, Santiago, Chile) in a final volume of 250 μL. Non-specific binding was determined using 2.5 mM of cytisine. Incubation was performed for 30 min at room temperature and then for 60 min at 4 °C. Incubation was stopped by rapid filtration in Whatman GF/C filter preabsorbed in 0.5% polyethylenimine, which were washed with cold and fresh working buffer 7 times, then dried, and adding scintillation liquid, left for the whole night in Eppendorf tubes in order to measure later the radioactivity by liquid scintillation spectrometry (MicroBeta 2450 microplate counter, PerkinElmer, Santiago, Chile). The data were plotted by non-linear regression variable inhibitor-response dose (Prism 5.01, GraphPad, San Diego, CA, USA) to obtain the IC50 and Ki values of the tested compounds using the Cheng-Prusoff equation.
Structure (SMILES),melting point,Ki (µM) h-DAT (h-DAT),Ki (α4β2 nAChR),% radioligand binding at 25 µM (h-SERT; […]),Ki (µM) α4β2 nAChR (α4β2 nAChR),also measured
CN1CCC[C@H]1COC(=O)Cc1ccc(Cl)cc1Cl (as salt: hydrochloride),179.1 to 180.5 °C,–,–,–,–,–
CN1CCC[C@H]1COC(=O)Cc1ccc(Cl)c(Cl)c1 (as salt: hydrochloride),183.5 to 184.8 °C,–,–,–,–,–
"CN1CCC[C@H]1COC(=O)c1cccc(Cl)c1 (as salt: hydrochloride) [Compound 3, (S)-(1-Methyl-2-pyrrolidinyl)methyl 3-chlorobenzoate]",120.5 to 121.9 °C,–,–,–,–,–
"CN1CCC[C@H]1COC(=O)c1cccc(Br)c1 (as salt: hydrochloride) [Compound 4, (S)-(1-Methyl-2-pyrrolidinyl)methyl 3-bromobenzoate]",99 to 101.4 °C,–,–,–,–,–
"Cc1ccccc1C(=O)OC[C@@H]1CCCN1C (as salt: hydrochloride) [Compound 5, (S)-(1-Methyl-2-pyrrolidinyl)methyl 2-methylbenzoate]",130.5 to 131.6 °C,–,–,–,–,–
"CN1CCC[C@H]1COC(=O)c1ccc2ccccc2c1 (as salt: hydrochloride) [Compound 18, (S)-(1-Methyl-2-pyrrolidinyl)methyl 2-naphthoate]",125.5 to 127.1 °C,–,–,–,–,–
"CN1CCCC1CCOC(=O)c1ccccc1 (racemic) (as salt: hydrochloride) [Compound 7, (±)-2-(1-Methyl-2-pyrrolidinyl)ethyl benzoate]",88.6 to 89.1 °C,–,–,–,–,–
"CN1CCCC1CCOC(=O)c1ccccc1 (racemic) [Compound 7, (±)-2-(1-Methyl-2-pyrrolidinyl)ethyl benzoate]",–,no affinity and N.E,1.79 ± 0.378 µM,–,–,% radioligand binding at 25 µM (h-SERT; values above 100 = increased radioligand binding): 100 ± 0.5%; affinity for h-SERT (displacement of [3H]-paroxetine from the central binding site) (h-SERT): no affinity
"CN1CCCC1CCOC(=O)c1cccc(F)c1 (racemic) [Compound 8, (±)-2-(1-Methyl-2-pyrrolidinyl)ethyl 3-fluorobenzoate]",–,N.E,–,140 ± 2%,N.E,% of Binding [3H]-Paroxetine h-SERT (h-SERT; […]): increase in the binding
"CN1CCCC1CCOC(=O)c1cccc(Cl)c1 (racemic) [Compound 9, (±)-2-(1-Methyl-2-pyrrolidinyl)ethyl 3-chlorobenzoate]",–,N.E,3.46 ± 0.36 µM,108 ± 1.2%,–,–
"Cc1ccccc1C(=O)OCCC1CCCN1C (racemic) [Compound 11, (±)-2-(1-Methyl-2-pyrrolidinyl)ethyl 2-methylbenzoate]",–,did not display affinity,–,–,did not display affinity,affinity for h-SERT (displacement of [3H]-paroxetine from the central binding site) (h-SERT): did not display affinity
"Cc1ccc(C(=O)OCCC2CCCN2C)cc1 (racemic) [Compound 12, (±)-2-(1-Methyl-2-pyrrolidinyl)ethyl 4-methylbenzoate]",–,did not display affinity,–,–,did not display affinity,affinity for h-SERT (displacement of [3H]-paroxetine from the central binding site) (h-SERT): did not display affinity
"CN1CCCC1CCOC(=O)Cc1ccccc1 (racemic) [Compound 16, (±)-2-(-1-Methyl-2-pyrrolidinyl)ethyl 2-phenylacetate]",–,–,–,92 ± 0.3%,N.E,Ki (h-DAT): 22.7 ± 7.1 µM
"CN1CCCC1CCOC(=O)Cc1ccc(Cl)c(Cl)c1 (racemic) [Compound 17, (±)-2-(-1-Methyl-2-pyrrolidinyl)ethyl 2-(3,4-dichlorophenyl)acetate]",–,–,–,78 ± 0.6%,N.E,Ki (h-DAT): 3.32 ± 0.923 µM
"CN1CCCC1CCOC(=O)c1ccc2ccccc2c1 (racemic) [Compound 19, (±)-2-(1-Methyl-2-pyrrolidinyl)ethyl 2-naphthoate]",–,–,–,126 ± 1.9%,N.E,Ki (h-DAT): 44.2 ± 8.12 µM; % of Binding [3H]-Paroxetine h-SERT (h-SERT; […]): increase in the binding
"CN1CCCC1CCOC(=O)C(c1ccccc1)c1ccccc1 (racemic) [Compound 21, (±)-2-(-1-Methyl-2-pyrrolidinyl)ethyl 2,2-diphenylacetate]",–,–,0.113 ± 0.037 µM,86.5 ± 1.5%,–,Ki (h-DAT): 0.075 ± 0.009 µM
"CN1CCC[C@H]1COC(=O)c1ccccc1 [Compound 1, (S)-(1-Methyl-2-pyrrolidinyl)methyl Benzoate]",–,N.E,0.023 ± 0.006 µM,86 ± 0.6%,–,–
"CN1CCC[C@H]1COC(=O)c1cccc(F)c1 [Compound 2, (S)-(1-Methyl-2-pyrrolidinyl)methyl 3-fluorobenzoate]",–,N.E,0.094 ± 0.002 µM,123 ± 1.2%,–,% of Binding [3H]-Paroxetine h-SERT (h-SERT; […]): increase in the binding
"CN1CCC[C@H]1COC(=O)c1cccc(Cl)c1 [Compound 3, (S)-(1-Methyl-2-pyrrolidinyl)methyl 3-chlorobenzoate]",–,lacks affinity and N.E,0.009 ± 0.001 µM,87.5 ± 1.5%,–,affinity for h-SERT (displacement of [3H]-paroxetine from the central binding site) (h-SERT): lacks affinity
"CN1CCC[C@H]1COC(=O)c1cccc(Br)c1 [Compound 4, (S)-(1-Methyl-2-pyrrolidinyl)methyl 3-bromobenzoate]",–,N.E,0.132 ± 0.038 µM,137 ± 1.2%,–,% of Binding [3H]-Paroxetine h-SERT (h-SERT; […]): increase in the binding
"Cc1ccccc1C(=O)OC[C@@H]1CCCN1C [Compound 5, (S)-(1-Methyl-2-pyrrolidinyl)methyl 2-methylbenzoate]",–,did not display affinity,–,–,did not display affinity,affinity for h-SERT (displacement of [3H]-paroxetine from the central binding site) (h-SERT): did not display affinity
"Cc1ccc(C(=O)OC[C@@H]2CCCN2C)cc1 [Compound 6, (S)-(1-Methyl-2-pyrrolidinyl)methyl 4-methylbenzoate]",–,did not display affinity,–,–,did not display affinity,affinity for h-SERT (displacement of [3H]-paroxetine from the central binding site) (h-SERT): did not display affinity
"CN1CCC[C@H]1COC(=O)c1ccc2ccccc2c1 [Compound 18, (S)-(1-Methyl-2-pyrrolidinyl)methyl 2-naphthoate]",–,–,0.12 ± 0.037 µM,117 ± 2.3%,–,Ki (h-DAT): 99.3 ± 1.41 µM; % of Binding [3H]-Paroxetine h-SERT (h-SERT; […]): increase in the binding
